From patent US12612409B2, “Pyrrolopyrimidines as CFTR potentiators” (Cystic Fibrosis Foundation, priority 2016, dated 2026)

Assays:
[1] = molecular target: T1, CFTR in F508del/F508del primary CF hBE cells (Homo sapiens, UniProt P13569, DEL508-508); experiment: Ussing chamber electrophysiology assay of CFTR potentiation in F508del/F508del CF bronchial epithelial cells (27° C.); format: cell-based
T1 construct: Primary cystic fibrosis human bronchial epithelial (CF hBE) cells were expanded and cultured; endogenous in cells; host or cells: primary CF human bronchial epithelial cells, genotype F508del/F508del
T1 sequence (P13569 with tags, fused parts or gaps DEL508-508): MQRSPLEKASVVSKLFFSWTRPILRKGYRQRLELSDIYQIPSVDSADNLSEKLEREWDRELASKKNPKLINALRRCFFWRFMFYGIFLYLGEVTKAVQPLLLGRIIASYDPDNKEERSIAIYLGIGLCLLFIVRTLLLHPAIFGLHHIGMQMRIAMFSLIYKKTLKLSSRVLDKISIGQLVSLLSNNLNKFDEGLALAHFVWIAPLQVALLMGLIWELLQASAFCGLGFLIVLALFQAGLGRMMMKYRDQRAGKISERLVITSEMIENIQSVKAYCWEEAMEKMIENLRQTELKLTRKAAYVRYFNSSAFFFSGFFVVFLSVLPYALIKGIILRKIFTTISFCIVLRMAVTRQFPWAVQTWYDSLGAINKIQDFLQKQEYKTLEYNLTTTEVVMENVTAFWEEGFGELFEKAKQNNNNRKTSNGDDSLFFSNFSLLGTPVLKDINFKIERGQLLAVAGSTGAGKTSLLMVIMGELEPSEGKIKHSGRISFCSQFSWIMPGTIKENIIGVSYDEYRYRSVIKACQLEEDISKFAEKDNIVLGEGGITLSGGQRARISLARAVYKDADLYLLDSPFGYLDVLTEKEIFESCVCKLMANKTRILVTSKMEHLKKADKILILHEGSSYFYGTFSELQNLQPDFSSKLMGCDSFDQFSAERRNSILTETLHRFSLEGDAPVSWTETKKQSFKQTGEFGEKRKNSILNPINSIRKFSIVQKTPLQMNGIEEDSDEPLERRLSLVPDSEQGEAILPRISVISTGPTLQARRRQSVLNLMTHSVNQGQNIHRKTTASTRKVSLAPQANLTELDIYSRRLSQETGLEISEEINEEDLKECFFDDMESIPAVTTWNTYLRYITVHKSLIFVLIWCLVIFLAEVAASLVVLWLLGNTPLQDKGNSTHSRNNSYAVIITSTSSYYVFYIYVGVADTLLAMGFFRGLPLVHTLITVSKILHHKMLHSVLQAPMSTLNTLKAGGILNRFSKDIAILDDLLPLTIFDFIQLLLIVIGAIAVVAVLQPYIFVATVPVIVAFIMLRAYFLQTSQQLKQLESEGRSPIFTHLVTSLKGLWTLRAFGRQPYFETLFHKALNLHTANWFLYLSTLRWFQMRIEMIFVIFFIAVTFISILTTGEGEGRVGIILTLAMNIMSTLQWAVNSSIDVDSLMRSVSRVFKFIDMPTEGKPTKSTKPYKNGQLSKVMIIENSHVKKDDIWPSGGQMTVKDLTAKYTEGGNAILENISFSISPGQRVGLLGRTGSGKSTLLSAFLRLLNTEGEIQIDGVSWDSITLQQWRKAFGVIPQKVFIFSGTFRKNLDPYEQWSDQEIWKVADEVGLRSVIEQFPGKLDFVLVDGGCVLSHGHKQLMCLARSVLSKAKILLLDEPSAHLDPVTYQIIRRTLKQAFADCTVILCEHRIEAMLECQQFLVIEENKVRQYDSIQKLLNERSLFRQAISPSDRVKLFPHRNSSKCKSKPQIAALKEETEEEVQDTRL
Procedure, shortened: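 Short-circuit current was recorded under zero-voltage clamp across primary CF bronchial epithelia cultured >30 days at air/liquid interface, bathed apically and basolaterally in HEPES-buffered saline. Sequential additions: amiloride (30 uM), forskolin (10 uM), compound at 4 increasing levels, CFTRinh-172 (20 uM). Responses normalised between DMSO (0%) and maximal positive-control potentiator (100%).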

[2] = molecular target: T2, recombinant F508del V470 CFTR in Fischer rat thyroid (FRT) cells (Homo sapiens, UniProt P13569, DEL508-508); experiment: FRT ion flux assay of F508del CFTR potentiation; format: cell-based; conditions: FRT cells expressing F508del V470 CFTR, forskolin 20 uM, 27° C. pre-incubation
T2 construct: expressed in transfected cells
T2 sequence (P13569 with tags, fused parts or gaps DEL508-508): as above
Procedure, shortened: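 Potentiation read as YFP quench ~21 s after iodide buffer addition, as second/initial fluorescence ratio normalised between DMSO (0%) and reference potentiator (100%).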

Row | SMILES | EC50 [1] [nM] | EC50 [2] [nM]
1 | CC(c1cn(-c2ccccc2F)nn1)n1cc(-c2ccc(C#N)c(F)c2)c2c(N)ncnc21 (single isomer, unassigned; enantiomer 2) [Example 116, 4-(4-Amino-7-{1-[1-(2-fluorophenyl)-1H-1,2,3-triazol-4-yl]ethyl}-7H-pyrrolo[2,3-d]pyrimidin-5-yl)-2-fluorobenzonitrile, enantiomer 2] | 26 | 36
2 | CC(c1cn(-c2ccccc2F)nn1)n1cc(-c2ccc(OC3CC3)cc2)c2c(N)ncnc21 (single isomer, unassigned; enantiomer 2) [Example 118, (−) 5-[4-(Cyclopropyloxy)phenyl]-7-{1-[1-(2-fluorophenyl)-1H-1,2,3-triazol-4-yl]ethyl}-7H-pyrrolo[2,3-d]pyrimidin-4-amine, enantiomer 2] | 162 | 378
3 | CC(c1cn(-c2ccccc2F)nn1)n1cc(-c2ccc(OC3CC3)nc2)c2c(N)ncnc21 (single isomer, unassigned; enantiomer 2) [Example 120, (+) 5-[6-(Cyclopropyloxy)pyridin-3-yl]-7-{1-[1-(2-fluorophenyl)-1H-1,2,3-triazol-4-yl]ethyl}-7H-pyrrolo[2,3-d]pyrimidin-4-amine, enantiomer 2] | 5.48 | 33.4
4 | CCC(c1cn(-c2ccccc2)nn1)n1cc(-c2ccc(OC)nc2)c2c(N)ncnc21 (single isomer, unassigned; enantiomer 2) [Example 126, 5-(6-Methoxypyridin-3-yl)-7-[1-(1-phenyl-1H-1,2,3-triazol-4-yl)propyl]-7H-pyrrolo[2,3-d]pyrimidin-4-amine, enantiomer 2] | 12 | 21.6
5 | CCC(c1cn(-c2ccccc2)nn1)n1cc(-c2cncnc2OC)c2c(N)ncnc21 (single isomer, unassigned; enantiomer 2) [Example 128, (+) 5-(4-Methoxypyrimidin-5-yl)-7-[1-(1-phenyl-1H-1,2,3-tnazol-4-yl)propyl]-7H-pyrrolo[2,3-d]pyrimidin-4-amine, enantiomer 2] | 42.6 | 19.1
6 | CCC(c1cn(-c2ccccc2)nn1)n1cc(-c2cnc(C(F)(F)F)nc2)c2c(N)ncnc21 (single isomer, unassigned; enantiomer 2) [Example 130, 7-[1-(1-Phenyl-1H-1,2,3-triazol-4-yl)propyl]-5-[2-(trifluoromethyl)pyrimidin-5-yl]-7H-pyrrolo[2,3-d]pyrimidin-4-amine, enantiomer 2] | 187 | 234
7 | CCC(c1cn(-c2ccccc2F)nn1)n1cc(-c2ccc(Cl)cc2)c2c(N)ncnc21 (single isomer, unassigned; enantiomer 2) [Example 132, (+) 5-(4-Chlorophenyl)-7-{1-[1-(2-fluorophenyl)-1H-1,2,3-triazol-4-yl]propyl}-7H-pyrrolo[2,3-d]pyrimidin-4-amine, enantiomer 2] | 11.3 | 38
8 | CCC(c1cn(-c2ccccc2F)nn1)n1cc(-c2nccnc2OC)c2c(N)ncnc21 (single isomer, unassigned; enantiomer 2) [Example 136, (+) 7-{1-[1-(2-Fluorophenyl)-1H-1,2,3-triazol-4-yl]propyl}-5-(3-methoxypyrazin-2-yl)-7H-pyrrolo[2,3-d]pyrimidin-4-amine, enantiomer 2] | 3.46 | 15.3
9 | CCC(c1cn(-c2ccccc2F)nn1)n1cc(-c2cnc(C(F)(F)F)nc2)c2c(N)ncnc21 (single isomer, unassigned; enantiomer 2) [Example 138, 7-{1-[1-(2-Fluorophenyl)-1H-1,2,3-triazol-4-yl]propyl}-5-[2-(trifluoromethyl)pyrimidin-5-yl]-7H-pyrrolo[2,3-d]pyrimidin-4-amine, enantiomer 2] | 261 | 266
10 | CCC(c1cn(-c2ccccc2F)nn1)n1cc(-c2cc(F)cnc2OC)c2c(N)ncnc21 (single isomer, unassigned; enantiomer 2) [Example 140, (−) 5-(5-Fluoro-2-methoxypyridin-3-yl)-7-{1-[1-(2-fluorophenyl)-1H-1,2,3-triazol-4-yl]propyl}-7H-pyrrolo[2,3-d]pyrimidin-4-amine, enantiomer 2] | 63 | 171
11 | CCC(c1cn(-c2ccccc2F)nn1)n1cc(-c2ccc(OC(F)F)nc2)c2c(N)ncnc21 (single isomer, unassigned; enantiomer 2) [Example 142, (+) 5-[6-(Difluoromethoxy)pyridin-3-yl]-7-{1-[1-(2-fluorophenyl)-1H-1,2,3-triazol-4-yl]propyl}-7H-pyrrolo[2,3-d]pyrimidin-4-amine, enantiomer 2] | 4.58 | 5.02
12 | CCC(c1cn(-c2ccccc2F)nn1)n1cc(-c2cc[nH]n2)c2c(N)ncnc21 (single isomer, unassigned; enantiomer 2) [Example 148, 7-{1-[1-(2-Fluorophenyl)-1H-1,2,3-triazol-4-yl]propyl}-5-(1H-pyrazol-3-yl)-7H-pyrrolo[2,3-d]pyrimidin-4-amine, enantiomer 2] | 25.7 | 12.4
13 | CCC(c1cn(-c2ccc(F)cc2)nn1)n1cc(-c2cncnc2OC)c2c(N)ncnc21 (single isomer, unassigned; enantiomer 2) [Example 150, (−) 7-{1-[1-(4-Fluorophenyl)-1H-1,2,3-triazol-4yl]propyl}-5-(4-methoxypyrimidin-5-yl)-7H-pyrrolo[2,3-d]pyrimidin-4-amine, enantiomer 2] | 926 | 298
14 | CCC(c1cn(-c2ccc(F)c(F)c2)nn1)n1cc(-c2cncnc2OC)c2c(N)ncnc21 (single isomer, unassigned; enantiomer 2) [Example 152, (−) 7-{1-[1-(3,4-Difluorophenyl)-1H-1,2,3-triazol-4-yl]propyl}-5-(4-methoxypyrimidin-5-yl)-7H-pyrrolo[2,3-d]pyrimidin-4-amine, enantiomer 2] | 445 | 182
15 | CCC(c1cn(-c2ccc(F)c(F)c2)nn1)n1cc(-c2cnc(C(F)(F)F)nc2)c2c(N)ncnc21 (single isomer, unassigned; enantiomer 2) [Example 154, 7-{1-[1-(3,4-Difluorophenyl)-1H-1,2,3-triazol-4-yl]propyl}-5-[2-(trifluoromethyl)pyrimidin-5-yl]-7H-pyrrolo[2,3-d]pyrimidin-4-amine, enantiomer 2] | 327 | 630
16 | CCC(c1cn(-c2ccc(F)c(F)c2)nn1)n1cc(-c2cc(F)cnc2OC)c2c(N)ncnc21 (single isomer, unassigned; enantiomer 2) [Example 156, 7-{1-[1-(3,4-Difluorophenyl)-1H-1,2,3-triazol-4-yl]propyl}-5-(5-fluoro-2-methoxypyridin-3-yl)-7H-pyrrolo[2,3-d]pyrimidin-4-amine, enantiomer 2] | 57.6 | 230
17 | CCC(c1cn(-c2ccc(F)c(F)c2)nn1)n1cc(-c2cnc(OC)c(F)c2)c2c(N)ncnc21 (single isomer, unassigned; enantiomer 2) [Example 158, 7-{1-[1-(3,4-Difluorophenyl)-1H-1,2,3-triazol-4-yl]propyl}-5-(5-fluoro-6-methoxypyridin-3-yl)-7H-pyrrolo[2,3-d]pyrimidin-4-amine, enantiomer 2] | 19.5 | 112
